Measured values as given in ChEMBL document CHEMBL1153596, “Design, synthesis, and characterization of 6beta-naltrexol analogs, and their selectivity for in vitro opioid receptor subtypes” (Bioorg Med Chem Lett, 2009).

Key:
Homo sapiens [1] = organism: Homo sapiens; experiment: Selectivity ratio of Ki for human kappa opioid receptor to Ki for human mu opioid receptor
[2] = molecular target: Delta-type opioid receptor (Homo sapiens, UniProt P41143); experiment: Displacement of [3H]DADLE from human delta opioid receptor expressed in CHO cells by liquid scintillation counting; format: cell-based
Chain of Delta-type opioid receptor (P41143 whole entry): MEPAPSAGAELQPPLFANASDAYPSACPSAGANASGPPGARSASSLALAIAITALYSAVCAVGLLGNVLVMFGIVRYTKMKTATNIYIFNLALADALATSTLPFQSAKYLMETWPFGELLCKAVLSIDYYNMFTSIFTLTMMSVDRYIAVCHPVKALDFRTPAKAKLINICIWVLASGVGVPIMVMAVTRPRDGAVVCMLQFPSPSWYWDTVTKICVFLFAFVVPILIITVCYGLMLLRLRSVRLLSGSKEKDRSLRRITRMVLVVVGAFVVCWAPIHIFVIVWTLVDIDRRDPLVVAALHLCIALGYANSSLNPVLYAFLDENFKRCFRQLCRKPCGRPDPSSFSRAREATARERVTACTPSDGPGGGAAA

[3] = molecular target: Kappa-type opioid receptor (Homo sapiens, UniProt P41145); experiment: Displacement of [3H]U69,593 from human kappa opioid receptor expressed in CHO cells by liquid scintillation counting; format: cell-based
Chain of Kappa-type opioid receptor (P41145 whole entry): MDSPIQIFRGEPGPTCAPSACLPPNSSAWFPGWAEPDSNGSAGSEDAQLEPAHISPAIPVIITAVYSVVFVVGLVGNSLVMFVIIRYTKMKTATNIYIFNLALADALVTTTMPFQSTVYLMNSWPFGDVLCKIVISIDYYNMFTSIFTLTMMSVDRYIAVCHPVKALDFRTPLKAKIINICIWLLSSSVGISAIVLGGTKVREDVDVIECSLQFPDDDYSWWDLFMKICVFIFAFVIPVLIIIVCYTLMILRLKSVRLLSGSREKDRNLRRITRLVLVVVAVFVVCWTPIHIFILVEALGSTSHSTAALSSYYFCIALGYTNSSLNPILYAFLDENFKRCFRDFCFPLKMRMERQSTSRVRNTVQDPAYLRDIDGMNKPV

Mu-type opioid receptor = Mu-type opioid receptor (Homo sapiens, UniProt P35372); experiment: Displacement of [3H]DAMGO from human mu opioid receptor expressed in CHO cells by liquid scintillation counting; format: cell-based
Chain of Mu-type opioid receptor (P35372 whole entry): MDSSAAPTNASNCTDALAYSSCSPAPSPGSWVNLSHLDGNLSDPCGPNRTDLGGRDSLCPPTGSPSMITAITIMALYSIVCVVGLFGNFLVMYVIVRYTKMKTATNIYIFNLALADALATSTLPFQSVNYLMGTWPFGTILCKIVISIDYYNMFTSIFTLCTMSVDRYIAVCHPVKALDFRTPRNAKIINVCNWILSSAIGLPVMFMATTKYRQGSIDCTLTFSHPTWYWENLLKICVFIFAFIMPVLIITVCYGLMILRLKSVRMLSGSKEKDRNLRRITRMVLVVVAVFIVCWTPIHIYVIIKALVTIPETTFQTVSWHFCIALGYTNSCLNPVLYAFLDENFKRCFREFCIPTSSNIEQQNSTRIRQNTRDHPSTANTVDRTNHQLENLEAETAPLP

Homo sapiens [4] = organism: Homo sapiens; experiment: Selectivity ratio of Ki for human delta opioid receptor to Ki for human mu opioid receptor

SMILES	Ratio Ki (Homo sapiens [1])	Ki [2]	Ki [3]	Ki (Mu-type opioid receptor)	Ratio Ki (Homo sapiens [4])
CS(=O)(=O)O[C@@H]1CC[C@@]2(O)[C@H]3Cc4ccc(O)c5c4[C@@]2(CCN3CC2CC2)[C@H]1O5	6.1	93.1 nM	6.75 nM	1.11 nM	83.8
Cc1ccc(S(=O)(=O)O[C@@H]2CC[C@@]3(O)[C@H]4Cc5ccc(O)c6c5[C@@]3(CCN4CC3CC3)[C@H]2O6)cc1	2.1	5.16 nM	1.66 nM	0.79 nM	6.5
CN(C)C(=O)O[C@@H]1CC[C@@]2(O)[C@H]3Cc4ccc(O)c5c4[C@@]2(CCN3CC2CC2)[C@H]1O5	15.2	334 nM	28.2 nM	1.85 nM	180
O=C(O[C@@H]1CC[C@@]2(O)[C@H]3Cc4ccc(O)c5c4[C@@]2(CCN3CC2CC2)[C@H]1O5)N(c1ccccc1)c1ccccc1	26.3	74.6 nM	14.7 nM	0.56 nM	133
